Test systems include NCI-H226; HCC 2998; A549; KM12; SF-295; BT-549; OVCAR-8; HCT-116; EKVX; SK-OV-3; DU-145; OVCAR-5; HCT-15; SF-539; TK-10; OVCAR-3; UO-31; UACC-62; M14; Malme-3M.
What all share (assay): growth of human tumour cells (NCI), 48 h

The results in this text go back to ChEMBL document CHEMBL1201862, “PubChem BioAssay data set” (2004).

Structures are written as SMILES.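 Cells were grown in 96-well plates and exposed to each compound for 48 hours at five concentrations; endpoints were interpolated linearly between bracketing concentrations, or set to the highest concentration if not reached. GI50 is the concentration that inhibits growth by half.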 Calls of active or inactive are those of the source. Cut-off read from the data, not from the text of the source: active = GI50 up to about 1.1 µM and inactive = higher.

With `c1nncn1C12C3C4C5C3C1C5C42` (stereo not drawn), the GI50 with NCI-H226, with HCC 2998, with A549, in the assay with KM12, in the assay with SF-295 and in the assay on BT-549 was > 100 µM (inactive) each time. In addition, the GI50 with OVCAR-8, in the assay with HCT-116, with EKVX, in the assay on SK-OV-3, in the assay on DU-145 and in the assay on OVCAR-5 was > 100 µM (inactive) each time. In addition, the GI50 in the assay on HCT-15 is above 100 µM; in the assay on SF-539, > 100 µM (inactive); in the assay with TK-10 it was > 100 µM (inactive).
Consider `[N-]=[N+]=Nc1nc2ccccc2c(N=[N+]=[N-])c1Cl`, for which the GI50 in the assay with OVCAR-3, in the assay with UO-31, with HCC 2998, in the assay with A549, in the assay with KM12 and with SF-295 was > 100 µM (inactive) throughout. In addition, the GI50 was 28.6 µM (inactive) in the assay with BT-549; 98.4 µM (inactive) with UACC-62; > 100 µM (inactive) in the assay with HCT-116; > 100 µM (inactive) with M14; 92 µM (inactive) with SK-OV-3; > 100 µM (inactive) with DU-145. Besides, the GI50 in the assay on OVCAR-5 was > 100 µM (inactive); in the assay with HCT-15, above 100 µM; in the assay with SF-539, 96.8 µM (inactive); in the assay with Malme-3M it was > 100 µM (inactive); with TK-10 it was > 100 µM (inactive).
As to `O=C1Nc2ccccc2C(=O)/C1=C/NC(=S)NC1CCCCC1`, the GI50 in the assay with NCI-H226, in the assay on OVCAR-3, in the assay with UO-31, with HCC 2998, with A549 and in the assay on KM12 was > 100 µM (inactive) in each case. The GI50 with SF-295, in the assay on BT-549, in the assay with UACC-62, in the assay with OVCAR-8, in the assay with HCT-116 and in the assay with EKVX was > 100 µM (inactive) throughout. Also, the GI50 in the assay on M14 was > 100 µM (inactive); in the assay on SK-OV-3 it was > 100 µM (inactive); with DU-145, > 100 µM (inactive); in the assay with OVCAR-5, > 100 µM (inactive); with HCT-15 it was above 100 µM; in the assay with SF-539, > 100 µM (inactive). Besides, the GI50 in the assay with TK-10 is > 100 µM (inactive).
Take `CCOC(=O)N(C)CCC1CC=CC(=O)C1c1cccc(OC)c1OC` (stereo not drawn): the GI50 was 11.8 µM (inactive) with OVCAR-3; 16.6 µM (inactive) in the assay with UO-31; 13.1 µM (inactive) in the assay on HCC 2998; 25.4 µM (inactive) in the assay with A549; 14.1 µM (inactive) in the assay with KM12; 31 µM (inactive) with SF-295. Moreover, the GI50 in the assay on BT-549 is 15 µM (inactive); in the assay on UACC-62, 15.6 µM (inactive); with OVCAR-8, 21.3 µM (inactive); in the assay with HCT-116 it was 14.4 µM (inactive); with EKVX, 25.8 µM (inactive); in the assay with M14, 19.5 µM (inactive). In addition, the GI50 was 37.4 µM (inactive) in the assay on SK-OV-3; 12.1 µM (inactive) in the assay with DU-145; 17.3 µM (inactive) with OVCAR-5; 14 µM with HCT-15; 9.91 µM (inactive) in the assay with SF-539; 22.9 µM (inactive) in the assay with Malme-3M. Further, in the assay on TK-10, the GI50 is 22.5 µM (inactive).
With `CC1CNC(c2cccc(OCc3ccc(COc4cccc(C5=NC(C)CN5)c4)cc3)c2)=N1` (stereo not drawn), the GI50 was 67.9 µM (inactive) in the assay with OVCAR-3; > 100 µM (inactive) in the assay on UO-31; 24 µM (inactive) in the assay on HCC 2998; 40.6 µM (inactive) with A549; 22.7 µM (inactive) with KM12; 66.8 µM (inactive) in the assay with SF-295. Moreover, the GI50 in the assay on BT-549 was 61.5 µM (inactive); in the assay with UACC-62, 99.5 µM (inactive); in the assay with OVCAR-8, 56.8 µM (inactive); in the assay with HCT-116, 23.6 µM (inactive); in the assay with EKVX it was 45.8 µM (inactive); in the assay on M14, > 100 µM (inactive). The GI50 with SK-OV-3 is > 100 µM (inactive); in the assay on DU-145, 50.8 µM (inactive); in the assay on OVCAR-5 it was 40.1 µM (inactive); in the assay with HCT-15, above 100 µM; in the assay with SF-539, 16.3 µM (inactive); with Malme-3M, 58.5 µM (inactive). Besides, the GI50 with TK-10 was 27.1 µM (inactive).
In the case of `O=C1CC[C@@]2(O)[C@H]3Cc4ccc(-c5cccc(O)c5)c5c4[C@@]2(CCN3CC2CC2)[C@H]1O5`, the GI50 in the assay on NCI-H226 is 29.3 µM (inactive); in the assay with OVCAR-3 it was 22 µM (inactive); in the assay with UO-31 it was 14.1 µM (inactive); with HCC 2998 it was 16.4 µM (inactive); in the assay with A549, 9.55 µM (inactive); with KM12, 10 µM (inactive). The GI50 in the assay with SF-295 was 19.8 µM (inactive); in the assay on BT-549, 21.6 µM (inactive); in the assay on UACC-62, 10.7 µM (inactive); with OVCAR-8 it was 19.6 µM (inactive); in the assay on HCT-116, 11.4 µM (inactive); in the assay on EKVX, 11.6 µM (inactive). Also, the GI50 in the assay with M14 was 12.1 µM (inactive); in the assay on DU-145, 22.6 µM (inactive); in the assay on OVCAR-5 it was 13.6 µM (inactive); in the assay with HCT-15, 23.9 µM; in the assay with SF-539 it was 18.9 µM (inactive); with TK-10, 1.01 µM (active).
In the case of `Oc1cc(-c2cccc(F)c2)nc2cc3c(cc12)OCO3`, the GI50 was 0.0222 µM (active) in the assay on OVCAR-3; 0.124 µM (active) in the assay with UO-31; 0.0705 µM (active) with HCC 2998; 0.119 µM (active) with A549; 0.0341 µM (active) with KM12; 0.102 µM (active) in the assay with SF-295. Also, the GI50 in the assay with BT-549 is 0.2 µM (active); with UACC-62, 0.0345 µM (active); in the assay on OVCAR-8 it was 0.0347 µM (active); in the assay with HCT-116, 0.0405 µM (active); in the assay on EKVX, 6.56 µM (inactive); with M14, 0.0402 µM (active). Moreover, the GI50 was 0.0698 µM (active) in the assay on SK-OV-3; 0.0524 µM (active) in the assay on DU-145; 0.345 µM (active) in the assay on OVCAR-5; 0.0711 µM in the assay on HCT-15; 0.0573 µM (active) with SF-539; 0.0454 µM (active) in the assay with Malme-3M. Besides, in the assay with TK-10, the GI50 was 0.879 µM (active).
Regarding `CCCCCCCCCCCCC(=O)NCC(=O)NC(Cc1ccccc1)C(=O)Oc1ccc([N+](=O)[O-])cc1` (stereo not drawn), the GI50 in the assay on NCI-H226 is 33.5 µM (inactive); in the assay with OVCAR-3 it was > 100 µM (inactive); in the assay with UO-31, 92.9 µM (inactive); in the assay with HCC 2998, 44.4 µM (inactive); in the assay with A549, > 100 µM (inactive); in the assay on KM12, 55.6 µM (inactive). In addition, the GI50 with SF-295 is 50.4 µM (inactive); in the assay with BT-549, 44.9 µM (inactive); in the assay on UACC-62, 60.3 µM (inactive); in the assay on OVCAR-8 it was 48.2 µM (inactive); in the assay on HCT-116, 30.9 µM (inactive); in the assay on EKVX, 70.6 µM (inactive). Further, the GI50 with M14 was 49.1 µM (inactive); in the assay with DU-145, > 100 µM (inactive); with OVCAR-5 it was > 100 µM (inactive); with HCT-15, 38.1 µM; in the assay on SF-539 it was 91.8 µM (inactive); in the assay with TK-10, > 100 µM (inactive).
Consider `Cc1nc(N)sc1C(=O)Nc1nc[nH]n1`, for which the GI50 in the assay with NCI-H226, in the assay on OVCAR-3, in the assay with UO-31, with HCC 2998, in the assay with A549 and with KM12 was > 100 µM (inactive) each time. The GI50 in the assay with SF-295, in the assay on BT-549, in the assay with UACC-62, in the assay with OVCAR-8, in the assay on HCT-116 and in the assay on EKVX was > 100 µM (inactive) in each case. Besides, the GI50 in the assay on M14 is > 100 µM (inactive); in the assay with SK-OV-3, > 100 µM (inactive); in the assay with DU-145, > 100 µM (inactive); in the assay with OVCAR-5 it was > 100 µM (inactive); in the assay on HCT-15, above 100 µM; in the assay with SF-539, > 100 µM (inactive). For the same compound, in the assay with TK-10, the GI50 is > 100 µM (inactive).
On to `Nc1ncn(C/C=C/c2ccccc2)c2ncnc1-2`, for which the GI50 in the assay on OVCAR-3, in the assay with UO-31, with HCC 2998, in the assay on A549, with KM12 and with SF-295 was > 100 µM (inactive) each time. Moreover, the GI50 in the assay with BT-549 was > 100 µM (inactive); in the assay on UACC-62, > 100 µM (inactive); with OVCAR-8 it was > 100 µM (inactive); in the assay with HCT-116, > 100 µM (inactive); in the assay with EKVX, 32.4 µM (inactive); in the assay on M14, > 100 µM (inactive). Besides, the GI50 was > 100 µM (inactive) in the assay with SK-OV-3; > 100 µM (inactive) in the assay on DU-145; > 100 µM (inactive) in the assay with OVCAR-5; above 100 µM with HCT-15; > 100 µM (inactive) with SF-539; > 100 µM (inactive) in the assay on Malme-3M. For the same compound, the GI50 in the assay on TK-10 is > 100 µM (inactive).
Regarding `C#CCOC(=O)C(N)CCCNC(=N)N` (stereo not drawn), the GI50 in the assay on NCI-H226, in the assay with UO-31, with HCC 2998, with A549, in the assay on KM12 and with BT-549 was > 100 µM (inactive) throughout. Also, the GI50 in the assay on OVCAR-8, with HCT-116, in the assay with EKVX, in the assay on M14, with DU-145 and in the assay with OVCAR-5 was > 100 µM (inactive) each time. Also, the GI50 with HCT-15 was above 100 µM; in the assay on SF-539, > 100 µM (inactive); with Malme-3M it was > 100 µM (inactive); in the assay with TK-10, > 100 µM (inactive).
